The results in this text go back to paper PMC10035370, “Targeting Tumor Angiogenesis with the Selective VEGFR-3 Inhibitor EVT801 in Combination with Cancer Immunotherapy” (Cancer Research Communications, 2022).

Molecules are shown by their SMILES.

Test [1] addresses T1, VEGFR-1 (Homo sapiens, UniProt P17948).
T1 construct: The VEGFR-1 tyrosine kinase domain was obtained from Upstake; purchased Upstake (so in the source)
T1 sequence (P17948 827-1158 limits assumed): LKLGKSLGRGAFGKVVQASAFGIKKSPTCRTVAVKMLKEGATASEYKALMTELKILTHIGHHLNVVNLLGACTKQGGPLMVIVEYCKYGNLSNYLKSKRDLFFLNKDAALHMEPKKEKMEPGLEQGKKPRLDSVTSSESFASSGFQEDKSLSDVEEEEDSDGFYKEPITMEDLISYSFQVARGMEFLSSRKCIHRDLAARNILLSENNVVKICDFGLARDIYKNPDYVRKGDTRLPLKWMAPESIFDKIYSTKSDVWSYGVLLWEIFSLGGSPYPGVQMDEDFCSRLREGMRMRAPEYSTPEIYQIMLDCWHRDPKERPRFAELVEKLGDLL
As to the kind of experiment: Biochemical kinase assay (in vitro assay), VEGFR-1. As to conditions: read-out: IC50 in biochemical assays, VEGFR-1. As to the method:
Sigma protein kinase assay kits were used. 125 μL per well of Poly-Glu-Tyr (PGT) solution (250 μg/mL of PGT in PBS without Ca^2+, Mg^2+ and sodium bicarbonate) was added in a 96-well plate and overnight incubation was performed at 37 °C. The day after, coating solution was removed and wells were washed with 300 μL of PBS-Tween-20 0.05 %. The washing buffer was removed and wells were dried for 2 h at 37 °C. 90 μL of the kinase buffer was supplemented with ATP (30 μM for VEGFR-1 and VEGFR-3, and 15 μM for VEGFR-2), and the compound (EVT801 or SAR401849 at the indicated concentration or 1 % DMSO for the vehicle control). The phosphorylation reaction was initiated by the addition of 20 μL of kinase buffer without ATP supplemented with 100 ng of the tyrosine kinase (or without tyrosine kinase as control). Plates were incubated with gentle agitation at room temperature for 30 min. After 3 washes with 300 μL of washing buffer, 100 μL of phosphotyrosine specific monoclonal antibody conjugated to HRP (1:30,000) was added onto the phosphorylated PGT. Plates were incubated for 30 min at room temperature under gentle agitation. Then, 3 washes with 300 μL of washing buffer were performed. […] After 7 min at room temperature, the reaction was stopped by addition of 100 μL of […], and absorbance was determined with an Endvision spectrophotometer at 492 nm.

The target in test [2] is T2, VEGFR-1 (Homo sapiens, UniProt P17948).
T2 construct: expressed in transfected cells; host or cells: HEK293T
As to the kind of experiment: Cellular autophosphorylation assay, HEK293 cells transiently expressing VEGFR-1. It is filed as cell-based. The method, then: Transfection of HEK293T cells and Ba/F3 cells with VEGFR-1-Flag, VEGFR-2-Flag or VEGFR-3-Flag expression constructs was performed using Fugene-6 (Roche) as per manufacturer’s protocol. Briefly, Fugene-6 was pre-incubated with Opti-Mem (Gibco) before adding DNA. After 24 h, media was replaced with serum-free culture media containing 0.2 % BSA. On the next day, cells were incubated for 1 h in 1 mM orthovanadate, harvested, dissociated and distributed at 4 x 10^5 cells in 5 mL for HEK-VEGFR-1 and HEK-VEGFR-3, and 5 x 10^4 cells per 5 mL for HEK VEGFR-2 in the presence of EVT801 or SAR401849. After 30 min, the reaction was stopped by the addition of cold PBS supplemented with 1 mM orthovanadate. Cells were then lysed with 150 μl of RIPA buffer for 15 min at 4°C, then centrifuged for 10 min at 10,000 g. Supernatants (75 μl) were distributed in duplicate on 96 well plates that were precoated with the anti-flag, and left for 1 h at room temperature. After 3 washes, the anti-phosphotyrosine conjugated to the HRP was added and incubated for 1 h at room temperature. Wells were then washed 3 times with TBS buffer containing 0.5 % Tween-20 and 2 mM MgCl2. The reaction was stopped with 50 μL of 2 N H2SO4, and the signal was read with Envision at the wavelengths of 485 nm and 530 nm.
T2 sequence (P17948 27-1338): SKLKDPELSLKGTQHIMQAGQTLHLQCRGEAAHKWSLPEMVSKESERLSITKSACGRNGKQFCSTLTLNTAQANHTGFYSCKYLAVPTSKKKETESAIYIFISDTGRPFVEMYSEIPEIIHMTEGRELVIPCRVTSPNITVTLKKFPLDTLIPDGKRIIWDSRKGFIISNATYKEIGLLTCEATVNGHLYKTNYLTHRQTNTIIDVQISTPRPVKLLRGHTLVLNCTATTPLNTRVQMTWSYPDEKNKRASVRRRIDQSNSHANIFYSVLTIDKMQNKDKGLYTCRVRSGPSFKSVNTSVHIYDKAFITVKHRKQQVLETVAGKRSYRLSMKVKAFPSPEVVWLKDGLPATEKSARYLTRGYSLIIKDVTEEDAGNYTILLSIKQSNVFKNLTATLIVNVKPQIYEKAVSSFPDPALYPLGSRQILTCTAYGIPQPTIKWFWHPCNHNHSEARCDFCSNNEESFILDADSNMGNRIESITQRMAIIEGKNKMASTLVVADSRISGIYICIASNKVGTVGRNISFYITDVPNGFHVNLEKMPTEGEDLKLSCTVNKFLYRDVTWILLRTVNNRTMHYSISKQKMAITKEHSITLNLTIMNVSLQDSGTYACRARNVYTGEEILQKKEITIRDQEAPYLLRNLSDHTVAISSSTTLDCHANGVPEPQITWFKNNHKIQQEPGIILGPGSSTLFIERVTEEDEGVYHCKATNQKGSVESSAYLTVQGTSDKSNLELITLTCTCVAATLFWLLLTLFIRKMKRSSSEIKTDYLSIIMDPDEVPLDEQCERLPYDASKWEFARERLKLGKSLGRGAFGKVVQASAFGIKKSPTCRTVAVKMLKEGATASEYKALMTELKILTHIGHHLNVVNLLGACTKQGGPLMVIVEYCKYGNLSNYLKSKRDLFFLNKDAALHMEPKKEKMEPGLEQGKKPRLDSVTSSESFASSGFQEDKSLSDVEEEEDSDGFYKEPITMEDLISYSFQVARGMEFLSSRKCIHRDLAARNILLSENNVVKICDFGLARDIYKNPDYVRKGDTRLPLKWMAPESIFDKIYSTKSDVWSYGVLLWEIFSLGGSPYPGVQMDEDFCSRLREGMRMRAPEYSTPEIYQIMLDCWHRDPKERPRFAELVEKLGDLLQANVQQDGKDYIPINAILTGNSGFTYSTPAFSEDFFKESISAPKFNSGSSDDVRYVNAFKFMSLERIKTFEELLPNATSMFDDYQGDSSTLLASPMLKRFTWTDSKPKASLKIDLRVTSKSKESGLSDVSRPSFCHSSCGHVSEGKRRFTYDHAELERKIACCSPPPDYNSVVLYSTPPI

The subject of test [3] is NCI-H1703 tumor xenografts. As to the kind of experiment: NCI-H1703 subcutaneous xenograft tumor mouse model. Format: in vivo, mice. As to conditions: 30 mg/kg twice per day. As to the method: A total number of 40 homozygous NOD.CB17 Prkdc^scid/NCrHsd mice were used for the xenograft tumor model. On the day of implantation, NCI-H1703 cells were harvested and suspended at a concentration of 1 × 10^8 cells per mL in an equal mix of Cultrex:RPMI without supplements. A volume of 100 μL was injected into the right hind flank of each animal. Tumor volumes were monitored until mean tumor volume reached 150 mm^3. Then, mice were stratified into four treatment groups of each 10 mice and orally dosed twice per day with either EVT801 30 mg/kg and EVT801 vehicle [Soluplus (BASF)/water/hydroxypropylcellulose SL (Nisso America)], or 30 mk/kg pazopanib and pazopanib vehicle (0.5% Hydroxypropyl methylcellulose trimellitate (HPMCT) + 0.1% Tween-80). A period of 8 hours was observed between the first and second daily dose.

The test system of the next test is RT-HAM-001 tumors. As to the kind of experiment: RT-001-HAM subcutaneous patient-derived xenograft tumor mouse model. It is filed as in vivo, mice. As to conditions: 30 mg/kg twice per day, 7-day treatment. The method, then:
Patient-derived tumors of the same passage were transplanted subcutaneously outbred athymic (nu/nu) female HSD mice. When tumor volume reached 726 to 1,437 mm^3, 4 donor mice were sacrificed by cervical dislocation, and tumors were aseptically excised and dissected. After removing necrotic areas, tumor fragments of approximately 20 mm^3 were transferred to culture medium before grafting. A total of 108 mice were anesthetized with 100 mg/kg ketamine hydrochloride (Virbac) and 10 mg/kg xylazine (Bayer). Then, a tumor fragment was placed in the subcutaneous tissue of an incision at the level of the interscapular region as described previously ([30]). All mice from the same experiment were implanted on the same day. A total of 54 mice with RT-001-HAM established growing tumor (P6.0.0/0) between 62.5 and 196 mm^3 were allocated according to tumor volume, ensuring homogenous median and mean tumor volume in each treatment arm. Treatments with 5 mL/kg vehicle, 30 mg/kg EVT801, or 30 mg/kg pazopanib started 15 days after tumor implantation and continued twice per day until termination 7 days later. Tumor volumes were measured via a caliper three times a week during the treatment period. All animals were weighed at the same time as tumor size measurement. Plasma and fresh tumor samples were collected at different timepoints after final dose at day 7 from all mice.
A general note: A xenograft is tissue or cells of one species grown in another, often human tumour cells in immunodeficient mice.

Broadly, the IC50 is the concentration at which inhibition is half-maximal.

For the compound `CCn1c(N)c(-c2ncc[nH]2)c(=O)c2ccc(C#C[C@@](C)(O)COC)nc21` [EVT801], the IC50 at VEGFR-1 [1] turned out to be 396 nM. Further, on VEGFR-1 [2] (HEK293T cellular autophosphorylation assay), the “maximum inhibition of VEGFR-1” value is on record as “below 50%”. Moreover, the IC50 on VEGFR-1 [2] (HEK293 cells, read-out: IC50 in cellular assays, VEGFR-1 autophosphorylation) came out at 2130 nM. Moreover, the “CD31 IHC, tumor vessels” value in test [3] was “decreased the number of vessels while increasing the proportion of larger ones”. Also, in test [3] (endpoint), the “decrease of tumor weight compared with vehicle” value was found to be 82%. The “T/C ratio, tumor growth” value in test [3] (oral, vs corresponding vehicle) was determined as 24%. For the same compound, in the test on RT-HAM-001 tumors, the “T/C ratio, tumor volume” value is 41% and the “size of necrotic areas in tumors” value was “decreased”. Further, in the test with RT-HAM-001 tumors (not statistically significant), the “hypoxic areas (CAIX) in tumors” value is given as “appeared to decrease hypoxia in half of the tumors”.
